Data reported in the NIST ThermoML archive (doi:10.1016/j.tca.2013.12.015).
Numbers after ± are expanded uncertainties.

Experiment: mn = molality of the nth substance listed, in mol/kg
Conditions: 101 kPa, Liquid; for speed of sound: Single path-length method; for mass density: Vibrating tube method

COC(=O)CC(C)=O [methyl 3-oxobutanoate] + O
speed of sound (288.15 K, m1 = 0.0809): 1472.5 ± 4.2 m/s | speed of sound (288.15 K, m1 = 0.1654): 1477.3 ± 4.2 m/s | speed of sound (288.15 K, m1 = 0.285): 1484.7 ± 4.2 m/s | speed of sound (288.15 K, m1 = 0.386): 1490.1 ± 4.2 m/s | speed of sound (288.15 K, m1 = 0.4607): 1494.2 ± 4.2 m/s | speed of sound (288.15 K, m1 = 0.5604): 1499.6 ± 4.2 m/s | speed of sound (288.15 K, m1 = 0.6367): 1503 ± 4.2 m/s | speed of sound (288.15 K, m1 = 0.7871): 1509.8 ± 4.2 m/s | speed of sound (288.15 K, m1 = 0.8429): 1512.2 ± 4.2 m/s | mass density (288.15 K, m1 = 0.0809): 1000.36 ± 0.41 kg/m3 | mass density (288.15 K, m1 = 0.1654): 1001.65 ± 0.41 kg/m3 | mass density (288.15 K, m1 = 0.285): 1003.44 ± 0.41 kg/m3 | mass density (288.15 K, m1 = 0.386): 1004.9 ± 0.41 kg/m3 | mass density (288.15 K, m1 = 0.4607): 1005.98 ± 0.42 kg/m3 | mass density (288.15 K, m1 = 0.5604): 1007.37 ± 0.42 kg/m3 | mass density (288.15 K, m1 = 0.6367): 1008.4 ± 0.42 kg/m3 | mass density (288.15 K, m1 = 0.7871): 1010.4 ± 0.42 kg/m3 | mass density (288.15 K, m1 = 0.8429): 1011.13 ± 0.42 kg/m3 | speed of sound (293.15 K, m1 = 0.0809): 1487.7 ± 4.2 m/s | speed of sound (293.15 K, m1 = 0.1654): 1491.9 ± 4.2 m/s | speed of sound (293.15 K, m1 = 0.285): 1498.3 ± 4.2 m/s | speed of sound (293.15 K, m1 = 0.386): 1503.1 ± 4.2 m/s | speed of sound (293.15 K, m1 = 0.4607): 1506.6 ± 4.2 m/s | speed of sound (293.15 K, m1 = 0.5604): 1511.4 ± 4.2 m/s | speed of sound (293.15 K, m1 = 0.6367): 1514.2 ± 4.2 m/s | speed of sound (293.15 K, m1 = 0.7871): 1520.2 ± 4.2 m/s | speed of sound (293.15 K, m1 = 0.8429): 1522.2 ± 4.2 m/s | mass density (293.15 K, m1 = 0.0809): 999.43 ± 0.41 kg/m3 | mass density (293.15 K, m1 = 0.1654): 1000.66 ± 0.41 kg/m3 | mass density (293.15 K, m1 = 0.285): 1002.36 ± 0.41 kg/m3 | mass density (293.15 K, m1 = 0.386): 1003.75 ± 0.41 kg/m3 | mass density (293.15 K, m1 = 0.4607): 1004.75 ± 0.41 kg/m3 | mass density (293.15 K, m1 = 0.5604): 1006.06 ± 0.42 kg/m3 | mass density (293.15 K, m1 = 0.6367): 1007.01 ± 0.42 kg/m3 | mass density (293.15 K, m1 = 0.7871): 1008.9 ± 0.42 kg/m3 | mass density (293.15 K, m1 = 0.8429): 1009.58 ± 0.42 kg/m3 | speed of sound (298.15 K, m1 = 0.0809): 1501.3 ± 4.2 m/s | speed of sound (298.15 K, m1 = 0.1654): 1504.8 ± 4.2 m/s | speed of sound (298.15 K, m1 = 0.285): 1510.5 ± 4.2 m/s | speed of sound (298.15 K, m1 = 0.386): 1514.6 ± 4.2 m/s | speed of sound (298.15 K, m1 = 0.4607): 1517.6 ± 4.2 m/s | speed of sound (298.15 K, m1 = 0.5604): 1521.7 ± 4.2 m/s | speed of sound (298.15 K, m1 = 0.6367): 1524.1 ± 4.2 m/s | speed of sound (298.15 K, m1 = 0.7871): 1529.1 ± 4.2 m/s | speed of sound (298.15 K, m1 = 0.8429): 1530.9 ± 4.2 m/s | mass density (298.15 K, m1 = 0.0809): 998.205 ± 0.41 kg/m3 | mass density (298.15 K, m1 = 0.1654): 999.37 ± 0.41 kg/m3 | mass density (298.15 K, m1 = 0.285): 1001 ± 0.41 kg/m3 | mass density (298.15 K, m1 = 0.386): 1002.33 ± 0.41 kg/m3 | mass density (298.15 K, m1 = 0.4607): 1003.3 ± 0.41 kg/m3 | mass density (298.15 K, m1 = 0.5604): 1004.56 ± 0.41 kg/m3 | mass density (298.15 K, m1 = 0.6367): 1005.53 ± 0.42 kg/m3 | mass density (298.15 K, m1 = 0.7871): 1007.35 ± 0.42 kg/m3 | mass density (298.15 K, m1 = 0.8429): 1008 ± 0.42 kg/m3 | speed of sound (303.15 K, m1 = 0.0809): 1513.1 ± 4.2 m/s | speed of sound (303.15 K, m1 = 0.1654): 1516.1 ± 4.2 m/s | speed of sound (303.15 K, m1 = 0.285): 1521 ± 4.2 m/s | speed of sound (303.15 K, m1 = 0.386): 1524.4 ± 4.2 m/s | speed of sound (303.15 K, m1 = 0.4607): 1527 ± 4.2 m/s | speed of sound (303.15 K, m1 = 0.5604): 1530.5 ± 4.2 m/s | speed of sound (303.15 K, m1 = 0.6367): 1532.5 ± 4.2 m/s | speed of sound (303.15 K, m1 = 0.7871): 1536.7 ± 4.2 m/s | speed of sound (303.15 K, m1 = 0.8429): 1538.1 ± 4.2 m/s | mass density (303.15 K, m1 = 0.0809): 996.78 ± 0.41 kg/m3 | mass density (303.15 K, m1 = 0.1654): 997.9 ± 0.41 kg/m3 | mass density (303.15 K, m1 = 0.285): 999.454 ± 0.41 kg/m3 | mass density (303.15 K, m1 = 0.386): 1000.73 ± 0.41 kg/m3 | mass density (303.15 K, m1 = 0.4607): 1001.65 ± 0.41 kg/m3 | mass density (303.15 K, m1 = 0.5604): 1002.85 ± 0.41 kg/m3 | mass density (303.15 K, m1 = 0.6367): 1003.74 ± 0.41 kg/m3 | mass density (303.15 K, m1 = 0.7871): 1005.47 ± 0.42 kg/m3 | mass density (303.15 K, m1 = 0.8429): 1006.11 ± 0.42 kg/m3 | speed of sound (308.15 K, m1 = 0.0809): 1523.2 ± 4.2 m/s | speed of sound (308.15 K, m1 = 0.1654): 1525.7 ± 4.2 m/s | speed of sound (308.15 K, m1 = 0.285): 1529.9 ± 4.2 m/s | speed of sound (308.15 K, m1 = 0.386): 1532.7 ± 4.2 m/s | speed of sound (308.15 K, m1 = 0.4607): 1534.9 ± 4.2 m/s | speed of sound (308.15 K, m1 = 0.5604): 1537.9 ± 4.2 m/s | speed of sound (308.15 K, m1 = 0.6367): 1539.5 ± 4.2 m/s | speed of sound (308.15 K, m1 = 0.7871): 1542.9 ± 4.2 m/s | speed of sound (308.15 K, m1 = 0.8429): 1544 ± 4.2 m/s | mass density (308.15 K, m1 = 0.0809): 995.12 ± 0.41 kg/m3 | mass density (308.15 K, m1 = 0.1654): 996.2 ± 0.41 kg/m3 | mass density (308.15 K, m1 = 0.285): 997.68 ± 0.41 kg/m3 | mass density (308.15 K, m1 = 0.386): 998.91 ± 0.41 kg/m3 | mass density (308.15 K, m1 = 0.4607): 999.79 ± 0.41 kg/m3 | mass density (308.15 K, m1 = 0.5604): 1000.94 ± 0.41 kg/m3 | mass density (308.15 K, m1 = 0.6367): 1001.79 ± 0.41 kg/m3 | mass density (308.15 K, m1 = 0.7871): 1003.45 ± 0.41 kg/m3 | mass density (308.15 K, m1 = 0.8429): 1004.04 ± 0.41 kg/m3

O [water] + CCCCn1cc[n+](C)c1.[Br-]
mass density (308.15 K, m2 = 0): 994.062 ± 0.41 kg/m3

O [water] + CCOC(=O)CC(C)=O
mass density (308.15 K, m2 = 0): 994.062 ± 0.41 kg/m3

O [water] + COC(=O)CC(C)=O
mass density (308.15 K, m2 = 0): 994.062 ± 0.41 kg/m3
